From patent US10730858B2, “Lactam, cyclic urea and carbamate, and triazolone derivatives as potent and selective rock inhibitors” (BRISTOL-MYERS SQUIBB COMPANY, priority 2016, dated 2020) come the findings set out here.

Molecules are shown by their SMILES. A value given as a limit tells only on which side of the number the result lay.

The target of this assay is ROCK2 (Homo sapiens, UniProt O75116). Put plainly: ROCK2 assay (Caliper LABCHIP peptide phosphorylation, kinase inhibition). The format is biochemical. The settings on record: 5 μM ATP, 1.5 μM peptide substrate. The method, then: The effectiveness of compounds of the present invention as ROCK inhibitors can be determined in a 30 μL assay containing 20 mM HEPES, pH 7.5, 20 mM MgCl2, 0.015% Brij-35, 4 mM DTT, 5 μM ATP and 1.5 μM peptide substrate (FITC-AHA-AKRRRLSSLRA-OH) (SEQ ID NO. 1). Compounds were dissolved in DMSO so that the final concentration of DMSO was <2%, and the reaction was initiated with Rho kinase variants. After incubation, the reaction was terminated by the addition of EDTA and the phosphorylated and non-phosphorylated peptides separated using a LABCHIP® 3000 Reader (Caliper Life Sciences). […] Compounds were tested in dose-response format, and the inhibition of kinase activity was calculated at each concentration of compound. The inhibition data were fit using a curve-fitting program to determine the IC50; i.e., the concentration of compound required to inhibit 50% of kinase activity.
Sequence of ROCK2 (O75116 whole entry, species assumed): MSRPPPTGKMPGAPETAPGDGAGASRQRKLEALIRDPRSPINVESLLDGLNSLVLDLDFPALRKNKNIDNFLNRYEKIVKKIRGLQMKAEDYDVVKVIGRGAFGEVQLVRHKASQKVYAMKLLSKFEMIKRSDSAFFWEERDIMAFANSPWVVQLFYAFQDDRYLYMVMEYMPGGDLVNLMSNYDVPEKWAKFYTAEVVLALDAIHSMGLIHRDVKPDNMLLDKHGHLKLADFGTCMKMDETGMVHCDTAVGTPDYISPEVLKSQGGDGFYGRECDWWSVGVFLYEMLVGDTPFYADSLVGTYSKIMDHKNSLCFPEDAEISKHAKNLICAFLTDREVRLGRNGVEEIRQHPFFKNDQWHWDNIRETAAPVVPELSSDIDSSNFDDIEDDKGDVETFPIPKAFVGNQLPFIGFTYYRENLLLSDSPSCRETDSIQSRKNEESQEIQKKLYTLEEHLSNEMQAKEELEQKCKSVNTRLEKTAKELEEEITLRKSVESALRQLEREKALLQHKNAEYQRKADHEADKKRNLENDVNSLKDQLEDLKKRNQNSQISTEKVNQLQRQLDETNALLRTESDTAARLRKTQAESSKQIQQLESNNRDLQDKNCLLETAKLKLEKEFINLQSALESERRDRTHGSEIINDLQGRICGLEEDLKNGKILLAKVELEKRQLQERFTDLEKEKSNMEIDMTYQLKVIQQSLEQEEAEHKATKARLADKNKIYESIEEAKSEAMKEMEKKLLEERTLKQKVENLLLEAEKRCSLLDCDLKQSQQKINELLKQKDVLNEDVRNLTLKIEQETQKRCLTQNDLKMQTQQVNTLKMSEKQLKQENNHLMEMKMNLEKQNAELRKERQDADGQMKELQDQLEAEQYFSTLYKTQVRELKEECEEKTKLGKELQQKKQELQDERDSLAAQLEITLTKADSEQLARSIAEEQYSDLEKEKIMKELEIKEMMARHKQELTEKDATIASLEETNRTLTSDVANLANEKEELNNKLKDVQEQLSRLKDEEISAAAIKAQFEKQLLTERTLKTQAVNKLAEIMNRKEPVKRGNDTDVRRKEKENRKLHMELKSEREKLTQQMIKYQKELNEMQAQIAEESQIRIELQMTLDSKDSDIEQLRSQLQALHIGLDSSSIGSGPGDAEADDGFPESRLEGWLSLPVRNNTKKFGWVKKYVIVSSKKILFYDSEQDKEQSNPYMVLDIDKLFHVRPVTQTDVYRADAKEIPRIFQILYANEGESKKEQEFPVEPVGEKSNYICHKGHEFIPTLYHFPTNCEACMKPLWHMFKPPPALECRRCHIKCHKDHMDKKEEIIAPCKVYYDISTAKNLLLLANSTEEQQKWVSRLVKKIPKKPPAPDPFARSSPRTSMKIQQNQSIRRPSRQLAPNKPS
Representative Examples were tested in the ROCK2 assay described above and found having ROCK2 inhibitory activity. The ranges of the ROCK2 IC50 values are as follows: ROCK2 IC50: ++++ (<10 nM) +++ (10-100 nM) ++ (100-500 nM) + (500-2000 nM)
On to `O=C1OC(C(O)(c2ccccc2)C(F)(F)F)CN1c1ccc(-c2n[nH]c(=O)c3ccccc23)cc1` (stereo not drawn) [Example 22, 4-{4-[2-oxo-5-(2,2,2-trifluoro-1-hydroxy-1-phenylethyl)-1,3-oxazolidin-3-yl]phenyl}-1,2-dihydrophthalazin-1-one], for which the 50% inhibitory concentration (IC50) lay within 500 to 2000 nM. Then `O=c1n(Cc2ccccc2)cnn1-c1ccc(-c2n[nH]c(=O)n3cccc23)cc1` [Example 47, 4-benzyl-1-(4-{4-oxo-3H,4H-pyrrolo[1,2-d][1,2,4]triazin-1-yl}phenyl)-4,5-dihydro-1H-1,2,4-triazol-5-one], with 500 to 2000 nM. For `O=C1C(Nc2ccc3c(c2)OC(F)(F)O3)CCN1c1ccc(-c2n[nH]c(=O)c3ccccc23)cc1` (stereo not drawn) [Example 51, 4-(4-{3-[(2,2-difluoro-2H-1,3-benzodioxol-5-yl)amino]-2-oxopyrrolidin-1-yl}phenyl)-1,2-dihydrophthalazin-1-one] the value was 10 to 100 nM; for `O=C1C(Nc2cccc(OC(F)F)c2)CCN1c1ccc(-c2c[nH]c(=O)c3ccccc23)cc1` (racemic) [Example 58, 4-[4-(3-{[3-(difluoromethoxy)phenyl]amino}-2-oxopyrrolidin-1-yl)phenyl]-1,2-dihydroisoquinolin-1-one], under 10 nM. For `COc1cccc(OC2CCN(c3ccc(-c4n[nH]c(=O)c5ccccc45)cc3)C2=O)c1` (stereo not drawn) [Example 86, 4-{4-[3-(3-methoxyphenoxy)-2-oxopyrrolidin-1-yl]phenyl}-1,2-dihydrophthalazin-1-one] the value was 10 to 100 nM; for `Cn1ccc(NC2CCN(c3ccc(-c4n[nH]c(=O)c5ccccc45)cc3)C2=O)n1` (stereo not drawn) [Example 65, 4-(4-{3-[(1-methyl-1H-pyrazol-3-yl)amino]-2-oxopyrrolidin-1-yl}phenyl)-1,2-dihydrophthalazin-1-one], 100 to 500 nM; for `O=C1C(Nc2cccc(F)n2)CCN1c1ccc(-c2n[nH]c(=O)c3ccccc23)cc1` (stereo not drawn) [Example 69, 4-(4-{3-[(6-fluoropyridin-2-yl)amino]-2-oxopyrrolidin-1-yl}phenyl)-1,2-dihydrophthalazin-1-one], 10 to 100 nM. `CSc1cccc(NC2CCN(c3ccc(-c4n[nH]c(=O)c5ccccc45)cc3)C2=O)c1` (stereo not drawn) [Example 68, 4-[4-(3-{[3-(methylsulfanyl)phenyl]amino}-2-oxopyrrolidin-1-yl)phenyl]-1,2-dihydrophthalazin-1-one] registered a half-inhibitory concentration (IC50) of 10 to 100 nM. For `O=C1C(Nc2cccc(OC(F)(F)F)c2)CCN1c1ccc(-c2n[nH]c(=O)c3ccccc23)cc1` (stereo not drawn) [Example 52, 4-[4-(2-oxo-3-{[3-(trifluoromethoxy)phenyl]amino}pyrrolidin-1-yl)phenyl]-1,2-dihydrophthalazin-1-one], the IC50 is under 10 nM. Consider `COc1ccccc1NC1CCN(c2ccc(-c3n[nH]c(=O)c4ccccc34)cc2)C1=O` (stereo not drawn) [Example 61, 4-(4-{3-[(2-methoxyphenyl)amino]-2-oxopyrrolidin-1-yl}phenyl)-1,2-dihydrophthalazin-1-one], for which the concentration for half-maximal inhibition (IC50) fell in the range of 10 to 100 nM. Then `N#Cc1ccnc(NC2CCN(c3ccc(-c4n[nH]c(=O)c5ccccc45)cc3)C2=O)c1` (stereo not drawn) [Example 74, 2-({2-oxo-1-[4-(4-oxo-3,4-dihydrophthalazin-1-yl)phenyl]pyrrolidin-3-yl}amino)pyridine-4-carbonitrile], with 10 to 100 nM; and `O=C1C(Nc2cccc(OC(F)F)c2)CCN1c1ccc(-c2c[nH]c(=O)c3ccccc23)cc1` (single isomer, unassigned) [Example 78, 4-[4-(3-{[3-(difluoromethoxy)phenyl]amino}-2-oxopyrrolidin-1-yl)phenyl]-1,2-dihydroisoquinolin-1-one], with 10 to 100 nM. In the case of `O=C1OC2CCCCC2N1c1ccc(-c2n[nH]c(=O)c3ccccc23)cc1` (stereo not drawn) [Example 21, 4-[4-(2-oxo-octahydro-1,3-benzoxazol-3-yl)phenyl]-1,2-dihydrophthalazin-1-one], the IC50 was in the range of 500 to 2000 nM. Compound `O=C1C(c2ccc(-c3n[nH]c(=O)c4ccccc34)cc2)CCN1Cc1ccccc1` (stereo not drawn) [Example 8, 4-[4-(1-benzyl-2-oxopyrrolidin-3-yl)phenyl]-1,2-dihydrophthalazin-1-one] yielded an IC50 of 500 to 2000 nM. For `O=C1C(c2ccccc2)CCN1c1ccc(-c2n[nH]c(=O)c3ccccc23)cc1` (stereo not drawn) [Example 1, 4-[4-(2-oxo-3-phenylpyrrolidin-1-yl)phenyl]-1,2-dihydrophthalazin-1-one] the value was 100 to 500 nM; for `O=C1C(Oc2cccc(OC(F)(F)F)c2)CCN1c1ccc(-c2n[nH]c(=O)c3ccccc23)cc1` (racemic) [Example 73, 4-(4-{2-oxo-3-[3-(trifluoromethoxy)phenoxy]pyrrolidin-1-yl}phenyl)-1,2-dihydrophthalazin-1-one], under 10 nM. `O=C(Nc1ccccc1)C1CCN(c2ccc(-c3n[nH]c(=O)c4ccccc34)cc2)C1=O` (stereo not drawn) [Example 6, 2-oxo-1-[4-(4-oxo-3,4-dihydrophthalazin-1-yl)phenyl]-N-phenylpyrrolidine-3-carboxamide]: the half-inhibitory concentration (IC50) fell in the range of 100 to 500 nM. The compound `O=C1N(c2ccccc2)CCN1c1ccc(-c2n[nH]c(=O)c3ccccc23)cc1` [Example 2, 4-[4-(2-oxo-3-phenylimidazolidin-1-yl)phenyl]-1,2-dihydrophthalazin-1-one] yielded a half-inhibitory concentration (IC50) of under 10 nM. `O=C1N(Cc2ccccc2)CCN1c1ccc(-c2n[nH]c(=O)c3ccccc23)cc1` [Example 10, 4-[4-(3-benzyl-2-oxoimidazolidin-1-yl)phenyl]-1,2-dihydrophthalazin-1-one] displayed an IC50 of 10 to 100 nM.

In turn, `O=C(NCc1ccccc1)C1CCN(c2ccc(-c3n[nH]c(=O)c4ccccc34)cc2)C1=O` (stereo not drawn) [Example 7, N-benzyl-2-oxo-1-[4-(4-oxo-3,4-dihydrophthalazin-1-yl)phenyl]pyrrolidine-3-carboxamide] gave a half-inhibitory concentration (IC50) of 100 to 500 nM.

Compound `O=C1C(NC2CCCC2)CCN1c1ccc(-c2n[nH]c(=O)c3ccccc23)cc1` (stereo not drawn) [Example 28, 4-{4-[3-(cyclopentylamino)-2-oxopyrrolidin-1-yl]phenyl}-1,2-dihydrophthalazin-1-one] displayed a half-inhibitory concentration (IC50) of 500 to 2000 nM. Consider `CC(C)Oc1cccc(NC2CCN(c3ccc(-c4n[nH]c(=O)c5ccccc45)cc3)C2=O)c1` (stereo not drawn) [Example 57, 4-[4-(2-oxo-3-{[3-(propan-2-yloxy)phenyl]amino}pyrrolidin-1-yl)phenyl]-1,2-dihydrophthalazin-1-one], for which the IC50 lay in the range of 10 to 100 nM. In turn, `CS(=O)(=O)c1ccc(CC2CN(c3ccc(-c4n[nH]c(=O)c5ccccc45)cc3)C(=O)O2)cc1` (stereo not drawn) [Example 20, 4-(4-{5-[(4-methanesulfonylphenyl)methyl]-2-oxo-1,3-oxazolidin-3-yl}phenyl)-1,2-dihydrophthalazin-1-one] came in with a concentration for half-maximal inhibition (IC50) of 100 to 500 nM. With `O=C1C(N2CCOCC2)CCN1c1ccc(-c2n[nH]c(=O)c3ccccc23)cc1` (stereo not drawn) [Example 24, 4-{4-[3-(morpholin-4-yl)-2-oxopyrrolidin-1-yl]phenyl}-1,2-dihydrophthalazin-1-one], the IC50 was in the range of 500 to 2000 nM. For `O=C1C(Oc2cccc(OC(F)(F)F)c2)CCN1c1ccc(-c2n[nH]c(=O)c3ccccc23)cc1` (single isomer, unassigned) [Example 85, 4-(4-{2-oxo-3-[3-(trifluoromethoxy)phenoxy]pyrrolidin-1-yl}phenyl)-1,2-dihydrophthalazin-1-one], the IC50 is under 10 nM. `O=C1C(Nc2ccc(OC(F)F)cc2)CCN1c1ccc(-c2n[nH]c(=O)c3ccccc23)cc1` (stereo not drawn) [Example 60, 4-[4-(3-{[4-(difluoromethoxy)phenyl]amino}-2-oxopyrrolidin-1-yl)phenyl]-1,2-dihydrophthalazin-1-one] showed an IC50 of 10 to 100 nM.

As for `O=C1C(C(=O)N2CCc3ccccc32)CCN1c1ccc(-c2n[nH]c(=O)c3ccccc23)cc1` (stereo not drawn) [Example 3, 4-{4-[3-(2,3-dihydro-1H-indole-1-carbonyl)-2-oxopyrrolidin-1-yl]phenyl}-1,2-dihydrophthalazin-1-one], the IC50 was in the range of 500 to 2000 nM.

In turn, `O=C1C(c2ccc(-c3n[nH]c(=O)c4ccccc34)cc2)CCN1c1ccccc1` (stereo not drawn) [Example 9, 4-[4-(2-oxo-1-phenylpyrrolidin-3-yl)phenyl]-1,2-dihydrophthalazin-1-one] registered an IC50 of 100 to 500 nM. In the case of `COc1cccc(NC2CCN(c3ccc(-c4n[nH]c(=O)c5ccccc45)cc3)C2=O)c1` (stereo not drawn) [Example 26, 4-(4-{3-[(3-methoxyphenyl)amino]-2-oxopyrrolidin-1-yl}phenyl)-1,2-dihydrophthalazin-1-one], the IC50 lay within 10 to 100 nM. For the compound `O=C1OC(c2ccc(F)cc2)CN1c1ccc(-c2n[nH]c(=O)c3ccccc23)cc1` (stereo not drawn) [Example 19, 4-{4-[5-(4-fluorophenyl)-2-oxo-1,3-oxazolidin-3-yl]phenyl}-1,2-dihydrophthalazin-1-one], the IC50 lay within 500 to 2000 nM. The compound `O=C1N(c2ccc(-c3n[nH]c(=O)c4ccccc34)cc2)CCN1c1cccnc1` [Example 11, 4-{4-[2-oxo-3-(pyridin-3-yl)imidazolidin-1-yl]phenyl}-1,2-dihydrophthalazin-1-one] yielded a concentration for half-maximal inhibition (IC50) of 10 to 100 nM. Then `COc1ccc(F)c(OC2CCN(c3ccc(-c4n[nH]c(=O)c5ccccc45)cc3)C2=O)c1` (stereo not drawn) [Example 87, 4-{4-[3-(2-fluoro-5-methoxyphenoxy)-2-oxopyrrolidin-1-yl]phenyl}-1,2-dihydrophthalazin-1-one], with 10 to 100 nM; and `O=C1C(NCc2ccccc2)CCN1c1ccc(-c2n[nH]c(=O)c3ccccc23)cc1` (stereo not drawn) [Example 25, 4-{4-[3-(benzylamino)-2-oxopyrrolidin-1-yl]phenyl}-1,2-dihydrophthalazin-1-one], with 500 to 2000 nM.

Usually IC50 stands for the midpoint of a concentration-inhibition curve. High values mean weaker potency, low ones greater potency.
